Source: publication PMC6264682, “Synthesis and Adrenolytic Activity of New Propanolamines” (Molecules, 2010)
Several values for one entry are separate records, joined by “and”; a condition that tells them apart may be missing. Equal entries are not always repeated. Marks after values point to notes of the source that are not given here.

Columns and labels:
α2-adrenoceptors = assay: Radioligand binding assay, displacement of [3H]Clonidine, rat cerebral cortex; settings: [3H]Clonidine 2 nM, ± SEM
Protocol: (§1) The experiment was carried out on rat cerebral cortex. […] The brains were homogenised in 20 vol of an ice-cold 50 mM Tris–HCl buffer (pH 7.6), and were centrifuged at 20.000 × g for 20 min (0–4 °C). The cell pellet was resuspended in the Tris–HCl buffer and centrifuged again. Radioligand binding assays were performed in plates (MultiScreen/Millipore). The final incubation mixture (final volume 300 μL) consisted of 240 μL of the membrane suspension, 30 μL of [^3H]Prazosin (0.2 nM), [^3H]Clonidine (2 nM) or [^3H]CGP12177 (0.2 nM) solution, and 30 μL of the buffer containing seven to eight concentrations (10^–11–10^–4 M) of the tested compounds. […] The incubation was terminated by rapid filtration over glass fibre filters (Whatman GF/C) using a vacuum manifold (Millipore). The filters were then washed twice with the assay buffer and placed in scintillation vials with a liquid scintillation cocktail. Radioactivity was measured in a WALLAC 1409 DSA liquid scintillation counter. All the assays were made in duplicate. The radioligand binding data were analyzed using an iterative curve-fitting routine (GraphPAD/Prism, Version 3.0, San Diego, CA, USA). Ki values were calculated from the Cheng and Prusoff equation [25].

[1] = tested on: adrenaline-induced arrhythmia; assay: Prophylactic antiarrhythmic activity, adrenaline-induced arrhythmia in anesthetized rats; assay type: in vivo, rat; settings: limits in brackets; for ED50 iv (dose producing 50% inhibition of premature ventricular beats): iv 15 min before adrenaline 20 μg∙kg^-1 iv; for ED50 po (dose producing 50% inhibition of premature ventricular beats): orally (intragastric) 60 min before adrenaline 20 μg∙kg^-1 iv
Protocol: The prophylactic antiarrhythmic activity of compounds 10 and 11 was determined using an adrenaline-induced arrhythmia model of in anesthetized rats.
Arrhythmia was evoked in thiopental (60 mg kg^-1, ip) – anaesthetized rats by iv injection of adrenaline (20 μg kg^-1). The tested compounds were administered intravenously 15 min or orally 60 min before adrenaline. […] The cardiac rhythm disturbances were recorded for 15 min after adrenaline injection. ECGs were analyzed according to the guidelines of the Lambeth Convention on ventricular premature beats (VBs), bigeminy, salvos (less than four successive VBs), ventricular tachycardia (VT, four or more successive VBs), and ventricular fibrillation (VF).

[2] = tested on: anesthetized male Wistar rats; assay: Effect on normal electrocardiogram (ECG) in vivo in rats; design: species or system rat; settings: 1 mg∙kg^-1 iv, mean ± SEM
Protocol: The effects on ECG intervals and heart rate were determined for all tested compounds at the same dose of 1 mg∙kg^-1.
Electrocardiographic measurement was carried out using the Ascard B5 Eco apparatus, standard lead II, and paper speed of 50 mm∙s^-1. The tested compounds were administered intravenously in a dose of 1 mg∙kg^-1. The ECG recording was carried out immediately before and 1, 5 and 15 min after administration of the tested compounds. The effect of the compounds on rat ECG recording was calculated according to Cambridge et al..

α1-adrenoceptors = assay: Radioligand binding assay, displacement of [3H]Prazosin, rat cerebral cortex; settings: for Ki: rat cerebral cortex, [3H]Prazosin 0.2 nM, ± SEM
Protocol: as §1

[3] = tested on: normotensive anesthetized rats; assay: Influence on blood pressure in normotensive anesthetized rats; assay type: in vivo, rat
Protocol: Hypotensive activity of compounds 10 and 11 was determined after iv and po administration to normotensive anesthetized rats.
Male Wistar normotensive rats were anesthetized with thiopental (50–75 mg kg^-1, ip). The right carotid artery was cannulated with a polyethylene tube, filled with heparin in saline to facilitate pressure measurement using the Datamax apparatus (Columbus Instruments). […]

[4] = tested on: isolated rabbit small intestine; assay: Influence on spontaneous contractions of isolated rabbit ileum; settings: for Amplitude of contractions / Frequency of contractions: mean ± SEM
Protocol: The influence on isolated rabbit ileum of the investigated compounds on the smooth muscle was investigated on the rabbit small intestine, according to the Magnus’ method modified and described by Orisadipe et al. The white rabbits were sacrificed by cervical dislocation and the small intestine was immediately removed, and cut into strips about 3–4 cm long. The isolated strips were incubated in Krebs solution at 37 °C and aerated with carbogen in special laboratory dishes. The isolated strip of the intestine was placed in a test glass tube with the Krebs solution constantly aerated by carbogen. After 1 hour incubation period, during which the physiological saline solution was changed every 15 min, the influence of the investigated compounds on spontaneous contractions of the rabbit ileum was evaluated. The contraction of the intestine was recorded on a TZ-4100 line recorder via isometric Harvard transducer, at the muscle load of 1 g. The influence of every single dose was recorded for 5 min.

[5] = time 0 min (immediately before administration, baseline)
[6] = po, 2 mg∙kg^-1, from 40 to 90 min
[7] = concentration 0 (control before 10^-5 M)
[8] = concentration 0 (control before 10^-6 M)
[9] = concentration 0 (control before 10^-7 M)
[10] = concentration 0 (control before 10^-8 M)
[11] = concentration 0 (control before 10^-9 M)

COc1ccccc1OCCNCC(O)COc1cccc2[nH]ccc12 (racemic) [(R,S)-9, (2R,S)-1-(1H-indol-4-yloxy)-3-(2-(2-methoxyphenoxy)ethylamino)propan-2-ol, reference compound]
Ki (α2-adrenoceptors): 1400 ± 400 nM
ED50 iv (dose producing 50% inhibition of premature ventricular beats) [1]: 0.34 (0.23–0.51) mg∙kg^-1
ED50 po (dose producing 50% inhibition of premature ventricular beats) [1]: 0.44 (0.18 ± 1.10) mg∙kg^-1
P–Q ([2]; 1 min after administration): 47.2 ± 1.6 ms
QRS ([2]; 1 min after administration): 28.4 ± 1.2 ms
Q–T ([2]; 1 min after administration): 69.2 ± 1.1 ms
heart rate ([2]; 1 min after administration): 298.7 ± 7.2 Beats/min
QRS ([2]; 5 min after administration): 24.9 ± 1.3 ms
Q–T ([2]; 5 min after administration): 69.0 ± 1.6 ms
heart rate ([2]; 5 min after administration): 294.5 ± 7.7 Beats/min
P–Q ([2]; 15 min after administration): 46.2 ± 1.7 ms
QRS ([2]; 15 min after administration): 26.9 ± 1.1 ms
Q–T ([2]; 15 min after administration): 72.8 ± 1.3 ms
heart rate ([2]; 15 min after administration): 287.3 ± 7.9 Beats/min
P–Q [2, 5]: 45.7 ± 2.0 ms
QRS [2, 5]: 26.4 ± 1.3 ms
Q–T [2, 5]: 72.6 ± 1.7 ms
heart rate [2, 5]: 304.9 ± 8.9 Beats/min

COc1ccccc1OCCNCC(O)COc1cccc2[nH]c3ccccc3c12 (stereo not shown) [Carvedilol, reference compound]
heart rate [2, 5]: 356.7 ± 21.0 Beats/min

COCc1cc2[nH]ccc2c(OC)c1OCC(O)CNCCOc1ccccc1OC [Compound 10, (2R,S)-1-(4-Methoxy-6-(methoxymethyl)-1H-indol-5-yloxy)-3-(2-(2-methoxyphenoxy)ethylamino)propan-2-ol]
Ki (α2-adrenoceptors): 307 ± 11.7 nM
ED50 iv (dose producing 50% inhibition of premature ventricular beats) [1]: 0.35 (0.18–0.72) mg∙kg^-1
ED50 po (dose producing 50% inhibition of premature ventricular beats) [1]: 1.71 mg∙kg^-1 and 1.71 (1.52 ± 1.93) mg∙kg^-1
time after administration in which diastolic blood pressure was decreased ([3]; iv, 0.25 mg·kg^-1): 10 min
time after administration in which systolic blood pressure was decreased ([3]; iv, 0.25 mg·kg^-1): 20 min
time over which diastolic blood pressure was significantly decreased ([3]; iv, 0.5 mg∙kg^-1): ≤ 10 min
decrease of systolic blood pressure ([3]; iv, 0.5 mg∙kg^-1, throughout the whole observation period): 8–14%
hypotensive activity ([3]; po, 1 mg∙kg^-1): disappeared
decrease of diastolic blood pressure [3, 6]: 11–23%
decrease of systolic blood pressure [3, 6]: 9–18%
P–Q ([2]; 1 min after administration): 45.6 ± 1.6^b ms
QRS ([2]; 1 min after administration): 31.2 ± 0.5^c ms
Q–T ([2]; 1 min after administration): 92.0 ± 4.2 ms
heart rate ([2]; 1 min after administration): 334.0 ± 13.0 Beats/min
P–Q ([2]; 5 min after administration): 46.8 ± 1.6^c ms
QRS ([2]; 5 min after administration): 31.2 ± 1.0^c ms
Q–T ([2]; 5 min after administration): 100.0 ± 2.8 ms
heart rate ([2]; 5 min after administration): 309.6 ± 13.7 Beats/min
P–Q ([2]; 15 min after administration): 46.4 ± 1.6^c ms
QRS ([2]; 15 min after administration): 32.4 ± 0.8^d ms
Q–T ([2]; 15 min after administration): 104.0 ± 1.4^a ms
heart rate ([2]; 15 min after administration): 297.4 ± 12.4 Beats/min
P–Q [2, 5]: 40.4 ± 0.4 ms
QRS [2, 5]: 27.6 ± 0.8 ms
Q–T [2, 5]: 94.4 ± 2.8 ms
heart rate [2, 5]: 329.4 ± 12.2 Beats/min
increased frequency of contractions ([4]; 10^-5 M): about 8%
Amplitude of contractions ([4]; 10^-5 M): 1.11 ± 0.09^c g
Frequency of contractions ([4]; 10^-5 M): 10.70 ± 0.25^a min ^-1
Amplitude of contractions ([4]; 10^-6 M): 1.10 ± 0.07^c g
Frequency of contractions ([4]; 10^-6 M): 11.60 ± 0.22 min ^-1
Amplitude of contractions ([4]; 10^-7 M): 1.29 ± 0.05^a g
Frequency of contractions ([4]; 10^-7 M): 12.15 ± 0.15 min ^-1
Amplitude of contractions ([4]; 10^-8 M): 1.31 ± 0.06^b g
Frequency of contractions ([4]; 10^-8 M): 12.15 ± 0.18 min ^-1
Amplitude of contractions ([4]; 10^-9 M): 1.56 ± 0.06 g
Frequency of contractions ([4]; 10^-9 M): 12.14 ± 0.22 min ^-1
Amplitude of contractions [4, 7]: 1.72 ± 0.11 g
Frequency of contractions [4, 7]: 11.61 ± 0.27 min ^-1
Amplitude of contractions [4, 8]: 1.63 ± 0.10 g
Frequency of contractions [4, 8]: 12.24 ± 0.25 min ^-1
Amplitude of contractions [4, 9]: 1.55 ± 0.10 g
Frequency of contractions [4, 9]: 12.05 ± 0.19 min ^-1
Amplitude of contractions [4, 10]: 1.53 ± 0.06 g
Frequency of contractions [4, 10]: 11.77 ± 0.14 min ^-1
Amplitude of contractions [4, 11]: 1.43 ± 0.06 g
Frequency of contractions [4, 11]: 12.74 ± 0.20 min ^-1
diminished amplitude of contractions ([4]; range of concentrations 10^-8–10^-5 M): 14 to 35%
selectivity towards α1-adrenergic receptors (α1-adrenoceptors; from Ki values of Table 1): 52 fold
Ki (α1-adrenoceptors): 5.9 ± 0.3 nM
